# Laboratory results from patent US20100137239A1, “GEMCITABINE COMBINATION THERAPY” (GLOUCESTER PHARMACEUTICALS, priority 2006, published 2010).
# Values joined by “and” are separate entries in the source; they are usually repeats but may differ in a detail not shown here. Equal entries are not always repeated. “Also recorded” adds a separate entry of the source.
# What was measured:
# [1] = system: NIH-3T3 cells transformed by H, K, N-Ras and the rat Her-2/NeuT; test: 4-day proliferation assay, transformed NIH-3T3 cell lines; assay type: cell-based, mouse; conditions: 2 nM romidepsin
# Protocol: (§1) A series of transformed NIH-3T3 cell likes were generated and a proliferation assay was performed in the presence of 2, 3, or 4 nM romidepsin. FIG. 23 illustrates the transformed morphology of the cells. FIG. 24 presents graphs of cell proliferation.
# c-Myc = test: Immunoblot of c-Myc in PANC-1 xenograft tumors after treatment; assay type: in vivo, human; conditions: FK228 5 mg/kg Q4Dx3; gemcitabine 80 mg/kg Q3Dx4; tumors at study completion; actin-normalized, vs controls
# Protocol: (§2) Abstract: To examine activity and mechanism of FK228, antitumor efficacy was tested in PANC-1 pancreatic adenocarcinoma model representing transformed Ras, either as a single agent or in combination with gemcitabine. Following PANC-1 study completion, tumor and sera were obtained from: • the vehicle control; • FK228 dosed at 5 mg/kg once every four days for three treatments (Q4Dx3); • Gemcitabine at 80 mg/kg (Q3Dx4); and • the drug combination. Expression of c-Myc, acetylated histones 3 and 4, and p21^waf1 was compared between control and FK228 groups by immunoblotting and was quantified following actin normalization. Serum levels of putative tumor products b-FGF and MMP-2 were quantified by human-specific ELISA. […]
# (§3) Tissue Biomarkers: Tumor levels of acetylated histone-4, histone-4, c-Myc, p21waf and β-actin were quantified by immunoblotting as described. […] The chemiluminescence signal was captured by autoradiography, quantified by densitometry and expressed as a ratio of actin in each sample lane. For each biomarker, means and standard errors were calculated in each treatment group. […]
# (§4) Expression of c-Myc, acetylated histones 3 and 4, and p21^waf1 was compared between control and FK228 groups by immunoblotting and was quantified following actin normalization. Serum levels of putative tumor products b-FGF and MMP-2 were quantified by human-specific ELISA. […]
# [2] = system: Panc-1 human pancreas tumors; test: Panc-1 mouse xenograft tumor growth (Example 1); assay type: in vivo; conditions: for tumor growth inhibition: Panc-1 xenograft in female nude mice, FK228 IV Q4Dx3, gemcitabine IP Q3Dx4, vs vehicle control
# Protocol: In this study, female nude mice were implanted subcutaneously (SC) by trocar with Panc-1 tumor fragments harvested from SC growing tumors in nude mice hosts. […] The day of treatment initiation was specified as Day 1. Vehicle control and FK228 were administered intravenously on a Q4Dx3 schedule (Days 1, 5, and 9). Gemcitabine was administered by an intraperitoneal injection on a Q3Dx4 schedule (Days 1, 4, 7, 10). Tumors were measured by Vernier calipers twice weekly.
# [3] = system: BxPC-3 Human Pancreatic Tumor Xenograft; test: BxPC-3 xenograft tumor growth inhibition study (Example 3); assay type: in vivo, mouse xenograft; conditions: for % TGI: BxPC-3, Day 29; for activity according to NCI Standards / #PR/CR / FINAL TUMOR VOLUME (DAY 29) MEAN ± SEM / calculated TGI values (discussion): BxPC-3; for calculated TGI values (discussion): all evaluated doses and schedules
# Source text: (Madison, Wis.). […] Tumor measurements were converted to cubic millimeter tumor volume using the formula^(5): […] Final mean tumor volume ±SEM for each group was reported; animals experiencing partial or complete tumor regressions or animals experiencing technical or drug-related deaths were censored from these calculations. […] TGI values for each treatment group are reported at study completion; these calculations are based on the final study day. […] If partial tumor regression was reported in multiple animals within one group, a mean value was determined. Individual mice lacking palpable tumors were classified as undergoing complete regression (CR). Animals experiencing partial or complete tumor regressions were censored from TGI calculations. However, data from these animals was included in statistical analysis calculations. In addition, weight data from these animals was included in daily and final group calculations. Tumor Necrosis-Degree of tumor necrosis was rated at each tumor measurement using the following arbitrary index: [table]
# B-Raf 600E cells = test: 4-day proliferation assay, B-Raf 600E NIH-3T3 cells; assay type: cell-based, mouse; conditions: 2, 3, or 4 nM romidepsin
# Protocol: as §1
# p21^waf = test: Immunoblot of p21^waf in PANC-1 xenograft tumors; assay type: in vivo, human; conditions: FK228 5 mg/kg Q4Dx3; gemcitabine 80 mg/kg Q3Dx4; tumors at study completion; vs controls
# Protocol: as §2, §3, §4
# [4] = FK228 2.5 mg/kg IV Q4Dx3, 2.5 mg/kg
# [5] = FK228 5 mg/kg IV Q4Dx3, 5 mg/kg
compound,measurement,setting,value
"C/C=C1\NC(=O)[C@H]2CSSCC/C=C/[C@H](CC(=O)N[C@H](C(C)C)C(=O)N2)OC(=O)[C@H](C(C)C)NC1=O [FK228, romidepsin]",proliferation of transformed vs untransformed cells,[1],selectively inhibited
same,inhibition of c-Myc expression,c-Myc,50%
same,tumor growth inhibition,[2],26%
same,% TGI,[3]; FK228 2.5 mg/kg IV Q4Dx3,No TGI
same,% TGI,[3]; FK228 5 mg/kg IV Q4Dx3,No TGI
same,activity according to NCI Standards,[3]; FK228 2.5 mg/kg IV Q4Dx3,inactive
same,#PR/CR,[3]; [4],0/9 and 0/0
same,FINAL TUMOR VOLUME (DAY 29) MEAN ± SEM,[3]; [4],2440±643 mm^3
same,activity according to NCI Standards,[3]; FK228 5 mg/kg IV Q4Dx3,inactive
same,#PR/CR,[3]; [5],0/9 and 0/0
same,FINAL TUMOR VOLUME (DAY 29) MEAN ± SEM,[3]; [5],2620±238 mm^3
same,calculated TGI values (discussion),[3],No tumor growth inhibition
same,single agent activity towards tumor model,[3]; wildtype ras BxPC-3,inactive
same,potency on B-Raf 600E cells,B-Raf 600E cells,not potent
"Nc1ccn([C@@H]2O[C@H](CO)[C@@H](O)C2(F)F)c(=O)n1 [Gemcitabine, gemcitabine]",inhibition of c-Myc expression,c-Myc,50%
same,p21^waf expression,p21^waf,downregulated; also recorded: down-regulated
same,tumor growth inhibition,[2],50%
same,animals with tumor regression,"[2]; Panc-1 xenograft, N=9 mice per group",no regression
same,% TGI,[3]; Gemcitabine 40 mg/kg IP Q3Dx4,20%
same,% TGI,[3]; Gemcitabine 80 mg/kg IP Q3Dx4,9%
same,#PR/CR,[3]; Gemcitabine 40 mg/kg IP Q3Dx4,0/9 and 0/0
same,FINAL TUMOR VOLUME (DAY 29) MEAN ± SEM,[3]; Gemcitabine 40 mg/kg IP Q3Dx4,1683±426 mm^3
same,activity according to NCI Standards,[3]; Gemcitabine 40 mg/kg IP Q3Dx4,inactive
same,#PR/CR,[3]; Gemcitabine 80 mg/kg IP Q3Dx4,0/9 and 0/0
same,FINAL TUMOR VOLUME (DAY 29) MEAN ± SEM,[3]; Gemcitabine 80 mg/kg IP Q3Dx4,1890±237 mm^3
same,activity according to NCI Standards,[3]; Gemcitabine 80 mg/kg IP Q3Dx4,inactive
same,calculated TGI values (discussion),[3],less than 58%
